These results are taken from patent EP0427925A2, “Use of prophenytoin for preparing pharmaceutical preparations for treating stroke and cerebral ischemia” (WARNER-LAMBERT COMPANY, priority 1989, dated 1991).

Counter-ions that a name gives are not always drawn.

Data set [1] deals with middle cerebral artery occlusion (MCAO) model. Briefly: Middle cerebral artery occlusion (MCAO) model, infarct area and volume by TTC stain. It counts as in vivo, male F-344 rats. To be noted: 37 mg/kg IV 30 minutes and 24 hours after occlusion. The text has this:
The model depends on a surgical procedure which is a modification of that originally proposed by A. Tamura, et al, "Focal Cerebral Ischemia in the Rat: Description of Technique and Early Neuropathological Consequences Following Middle Cerebral Artery Occlusion," J. Cerb. Blood Flow Metab. Vol. 1, pp. 53-60 and is similar to the methods described by Duverger and MacKenzie, "The Quantification of Cerebral Infarction Following Local Ischemia in the Rat: Influence of Strain, Arterial Pressure, Blood Glucose Concentration and Age", J. Cerb. Blood Flow Metab., Vol. 8, pp. 449-461 and S. Brint, et al, "Focal Brain Ischemia in the Rat: Methods for Reproducible Neocortical Infarction Using Tandem Occlusion of the Distal Middle Cerebral and Ipsilateral Common Carotid Arteries", J. Cereb. Blood Flow Metab., Vol. 8, pp. 474-485.
Generally, male F-344 rats weighing 300-350 g are anesthetized in 2% halothane in room air. The right femoral vein is cannulated and the tubing led subcutaneously to an exit behind the neck to allow intravenous (IV) drug injection. The left common carotid is permanently occluded with a 6-0 silk ligature. The left middle cerebral artery (MCA) is exposed through a 2-mm burr hole drilled 1-2 mm rostral to the fusion of the zygomatic arch with the squamosal bone. The dura is cut, the MCA lifted off the surface of the brain, electrocauterized, and cut. The wound margins are sutured shut and the anesthesia stopped.
The stable pharmaceutical composition is used for the assay or a solution for the assay may be prepared as follows: The hydrated fosphenytoin sodium (2.25 H₂O equivalent per mole) is dissolved in saline (pH = 7) at a concentration of 37 mg/mL and administered at 1 mL/kg. This dose of 37 mg/kg is equal to 30 mg/kg of the free base of fosphenytoin sodium. In vivo fosphenytoin sodium or the phenytoin prodrug undergoes a phosphate ester cleavage followed by a dehydroxymethylation to yield the free base of phenytoin. The dose administered is equivalent to 21 mg/kg of the free base of phenytoin.
This solution is then administered intravenously (IV) 30 minutes and 24 hours after occlusion to groups of 12 animals each. Forty-eight hours following occlusion rats are anesthetized with ketamine (150 mg/kg, IP), decapitated, the brains rapidly removed, and placed on ice. With the aid of a brain mold (Activational Systems), the brain is sliced into four 2-mm sections: one section anterior (ANT) to the MCA and three sections posterior (ANT-MED, POST-MED, and POST) to the MCA. The sections are then placed for 30 minutes in a 2% solution of 2,3,5 triphenyltetrazolium chloride (TTC) in saline. The brains are stored in 10% neutral buffered […] for analysis.
The brains are coded and the analysis is performed blinded. The area of infarction in each section is outlined with the aid of a morphometric analysis program (Bioquant IV, R & M Biometrics). The TTC stain is converted into a red marker in live mitochondria, while the infarcted area remains white. The total volume of infarction is calculated from the areas of the four sections assuming three truncated cones. The mean area for each section and the mean total volume are calculated; vehicle and drug treatment are compared using the Student's t-test.

Data set [2] is described as follows: Compatibility with standard intravenous solutions (precipitate formation). It counts as physicochemical. As to conditions: solutions and mixes with standard intravenous solutions (dextrose, saline, Ringers lactate). The text has this:
Supplementary active ingredients can also be incorporated into the formulations of formula I and its salts. The formula I and its salts, and particularly fosphenytoin sodium, can be and is formulated so as to be compatible with the commonly used intravenous fluids including solutions based on dextrose, […] or 0.9% saline as well as more complicated solutions including/such as Ringers lactate, and the like.

[3] abbreviates: section posterior to the MCA, forty-eight hours following occlusion, mean ± standard deviation, N = 12.

Regarding `O=C1NC(c2ccccc2)(c2ccccc2)C(=O)N1COP(=O)(O)O` [Disodium Salt of Prophenytoin, 3-(hydroxymethyl)-5,5-diphenylhydantoin disodium phosphate ester], the “% Change, POST” value in data set [1] (area of infarction vs Vehicle, Probability 0.006) is listed as -71.56%. The “% Change, POS-MED” value in data set [1] (area of infarction vs Vehicle, Probability 0.008) is reported as -57.10%. Moreover, the “% Change, ANT-MED” value in data set [1] (area of infarction vs Vehicle, Probability 0.049) is on record as -22.82%. Moreover, the “% Change, ANT” value in data set [1] (area of infarction vs Vehicle, Probability 0.160) is listed as -18.58%. In data set [1] (calculated from the areas of the four sections, forty-eight hours following occlusion, mean ± standard deviation, N = 12), the “TOTAL VOLUME of infarction” value was 43.21 ±21.85. Further, in data set [1] (section anterior to the MCA, forty-eight hours following occlusion, mean ± standard deviation, N = 12), the “area of infarction, ANT” value is recorded as 9.03 ± 2.91. Besides, in data set [1] (setting [3]), the “area of infarction, ANT-MED” value is 11.23 ± 2.95; the “area of infarction, POS-MED” value is listed as 5.23 ± 5.44; the “area of infarction, POST” value is 2.97 ± 4.39. The “% Change, TOTAL VOLUME” value in data set [1] (total volume of infarction vs Vehicle, Probability 0.010) is recorded as -42.07%. Besides, in data set [2], the “precipitate formation in standard intravenous solutions” value is listed as “do not form precipitates”.
